Results: publication PMC8201735 (BMC Pharmacology & Toxicology, 2021)

Assays:
Body weight = assay type: in vivo, human; details: for Change from baseline in body weight, Mean (SD): Day 2
Description: Body weight measurement was performed at screening and during inpatient Days- 1, 2, 4, 8, 13, and 14.

[1] = Plasma pharmacokinetics of metformin with and without RE; assay type: in vivo, human; details: RE 500 mg or 750 mg BID with metformin
Description: PK analysis was conducted by […] (Chapel Hill, NC, USA), under the direction of Clinical Pharmacokinetics/Modelling and Simulation, GSK using the non-compartmental analysis Model 200 (for extra vascular administration) of WinNonlin Professional Edition version 4.1 (Pharsight Corporation, Mountain View, CA). […] Descriptive statistics were used to summarize baseline demographics, safety data, and pharmacokinetic parameters. Geometric mean and % CVb (between-subject coefficient of variation) were calculated for all pharmacokinetic parameters except tmax. Comparisons of placebo with each active dose of RE were assessed in terms of change from baseline in fasting plasma lactate acid using repeated measures analysis of covariance model. The model included terms for baseline measurement, visit, treatment and visit-by-treatment interaction. The same model was applied to change from baseline in weighted means of day-time, night-time and 0-24 h of blood pressures. Within group treatment comparison was performed using mixed model on log transformed Cmax and AUC (0-last).

T2DM patients = tested on: T2DM patients; parameters: method as in PMID 32162274; details: T2DM patients on daily metformin therapy (> 1500 mg) over 24 weeks; cited from earlier work

CCOC(=O)OC[C@H]1O[C@@H](Oc2nn(C(C)C)c(C)c2Cc2ccc(OC(C)C)cc2)[C@H](O)[C@@H](O)[C@@H]1O [RE, remogliflozin etabonate]
Change from baseline in body weight, Mean (SD) (Body weight; RE 500 mg + Metformin): −1.03 (0.994) kg | Change from baseline in body weight, Mean (SD) (Body weight; RE 750 mg + Metformin): −1.04 (1.210) kg | Additional body weight lost in the RE groups compared to metformin alone (Body weight; by Day 14, RE 500 or 750 mg BID + metformin vs placebo + metformin): ~1 kg | Effect of RE on the pharmacokinetics of metformin [1]: no effect | Glycemic efficacy (T2DM patients): comparable to dapagliflozin
